Laboratory results: publication PMC8550792, “Evolution of kinase polypharmacology across HSP90 drug discovery” (Cell Chemical Biology, 2021)

Experiments:
Assay in all cases: biochemical
Assay type in all cases: biochemical
[1] = molecular target: T1, 382 unique human kinases (Homo sapiens, UniProt Q56UN5); conditions: kinase YSK4/MAP3K19, compound 10 uM; for remaining activity at 10 µM: read-out: % Enzyme Activity (relative to DMSO controls)
T1 construct: purchased Reaction Biology (HotSpot contract assay)
T1 sequence (Q56UN5 1-1328): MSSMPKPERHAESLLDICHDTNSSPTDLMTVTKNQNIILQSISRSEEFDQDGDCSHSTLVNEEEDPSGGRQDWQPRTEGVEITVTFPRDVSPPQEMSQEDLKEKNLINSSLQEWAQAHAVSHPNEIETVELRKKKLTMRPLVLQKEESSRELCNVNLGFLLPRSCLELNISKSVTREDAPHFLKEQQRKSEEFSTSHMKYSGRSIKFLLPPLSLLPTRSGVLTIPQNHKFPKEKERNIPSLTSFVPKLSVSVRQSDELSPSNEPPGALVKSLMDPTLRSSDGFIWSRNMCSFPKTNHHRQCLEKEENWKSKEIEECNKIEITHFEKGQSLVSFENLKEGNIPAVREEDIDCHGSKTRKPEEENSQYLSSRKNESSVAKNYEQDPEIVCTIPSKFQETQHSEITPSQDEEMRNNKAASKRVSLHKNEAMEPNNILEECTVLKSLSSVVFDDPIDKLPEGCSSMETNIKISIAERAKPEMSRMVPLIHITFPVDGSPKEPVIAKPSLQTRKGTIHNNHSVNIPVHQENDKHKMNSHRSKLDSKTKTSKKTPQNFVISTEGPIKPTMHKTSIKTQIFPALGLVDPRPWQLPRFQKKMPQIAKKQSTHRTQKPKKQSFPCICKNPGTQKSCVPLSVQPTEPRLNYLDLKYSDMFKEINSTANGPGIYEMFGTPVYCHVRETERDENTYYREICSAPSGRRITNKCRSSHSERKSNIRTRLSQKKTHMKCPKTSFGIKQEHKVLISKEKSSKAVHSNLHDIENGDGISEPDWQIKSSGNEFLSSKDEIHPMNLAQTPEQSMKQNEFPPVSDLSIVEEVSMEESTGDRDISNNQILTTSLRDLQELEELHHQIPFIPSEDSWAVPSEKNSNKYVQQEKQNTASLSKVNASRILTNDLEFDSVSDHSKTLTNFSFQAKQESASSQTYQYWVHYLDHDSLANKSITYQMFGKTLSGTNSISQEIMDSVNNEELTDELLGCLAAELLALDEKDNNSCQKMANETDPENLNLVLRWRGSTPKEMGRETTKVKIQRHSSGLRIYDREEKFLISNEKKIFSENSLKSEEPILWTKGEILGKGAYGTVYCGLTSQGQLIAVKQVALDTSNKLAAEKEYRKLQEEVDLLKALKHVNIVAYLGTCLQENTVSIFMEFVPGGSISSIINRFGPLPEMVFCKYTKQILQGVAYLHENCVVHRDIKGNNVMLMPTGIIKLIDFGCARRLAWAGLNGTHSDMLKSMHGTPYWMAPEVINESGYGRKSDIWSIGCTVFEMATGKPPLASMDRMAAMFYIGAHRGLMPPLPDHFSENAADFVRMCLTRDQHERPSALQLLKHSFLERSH

[2] = molecular target: T2, 382 unique human kinases (Homo sapiens, UniProt P45984); conditions: kinase JNK2, compound 10 uM; for remaining activity at 10 µM: read-out: % Enzyme Activity (relative to DMSO controls)
T2 construct: purchased Reaction Biology (HotSpot contract assay)
T2 sequence (P45984 whole entry): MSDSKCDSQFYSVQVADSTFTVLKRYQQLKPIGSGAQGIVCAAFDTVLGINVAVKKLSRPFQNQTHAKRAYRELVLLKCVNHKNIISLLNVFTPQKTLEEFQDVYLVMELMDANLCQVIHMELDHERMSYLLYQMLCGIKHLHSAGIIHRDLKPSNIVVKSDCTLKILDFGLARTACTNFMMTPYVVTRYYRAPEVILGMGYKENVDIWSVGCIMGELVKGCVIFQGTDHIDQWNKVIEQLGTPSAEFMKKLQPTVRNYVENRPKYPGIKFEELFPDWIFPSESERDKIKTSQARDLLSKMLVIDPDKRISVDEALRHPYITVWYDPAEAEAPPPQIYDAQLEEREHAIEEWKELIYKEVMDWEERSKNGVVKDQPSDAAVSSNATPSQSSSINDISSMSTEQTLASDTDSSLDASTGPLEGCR

[3] = molecular target: T3, 382 unique human kinases (Homo sapiens, UniProt Q13557); conditions: CAMK2d, 10 uM; for remaining activity at 10 µM: read-out: % Enzyme Activity (relative to DMSO controls)
T3 construct: purchased Reaction Biology (HotSpot contract assay)
T3 sequence (Q13557 whole entry): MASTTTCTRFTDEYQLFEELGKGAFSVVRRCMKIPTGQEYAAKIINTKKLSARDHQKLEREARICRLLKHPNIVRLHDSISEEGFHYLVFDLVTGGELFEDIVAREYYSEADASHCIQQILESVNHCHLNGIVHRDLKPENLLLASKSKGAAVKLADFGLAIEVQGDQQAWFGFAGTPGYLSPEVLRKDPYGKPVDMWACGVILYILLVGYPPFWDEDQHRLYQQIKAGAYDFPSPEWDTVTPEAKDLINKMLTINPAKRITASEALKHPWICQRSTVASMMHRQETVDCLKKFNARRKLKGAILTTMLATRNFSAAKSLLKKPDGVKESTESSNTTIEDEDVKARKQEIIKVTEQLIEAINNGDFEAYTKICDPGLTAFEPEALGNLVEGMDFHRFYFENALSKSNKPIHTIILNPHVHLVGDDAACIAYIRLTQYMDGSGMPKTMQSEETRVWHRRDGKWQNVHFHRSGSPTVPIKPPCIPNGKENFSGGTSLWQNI

[4] = molecular target: 382 unique human kinases (Homo sapiens, UniProt Q9H1R3); conditions: kinase MLCK2/MYLK2, compound 10 uM; for remaining activity at 10 µM: read-out: % Enzyme Activity (relative to DMSO controls)
Sequence of 382 unique human kinases (Homo sapiens, UniProt Q9H1R3) (Q9H1R3 whole entry): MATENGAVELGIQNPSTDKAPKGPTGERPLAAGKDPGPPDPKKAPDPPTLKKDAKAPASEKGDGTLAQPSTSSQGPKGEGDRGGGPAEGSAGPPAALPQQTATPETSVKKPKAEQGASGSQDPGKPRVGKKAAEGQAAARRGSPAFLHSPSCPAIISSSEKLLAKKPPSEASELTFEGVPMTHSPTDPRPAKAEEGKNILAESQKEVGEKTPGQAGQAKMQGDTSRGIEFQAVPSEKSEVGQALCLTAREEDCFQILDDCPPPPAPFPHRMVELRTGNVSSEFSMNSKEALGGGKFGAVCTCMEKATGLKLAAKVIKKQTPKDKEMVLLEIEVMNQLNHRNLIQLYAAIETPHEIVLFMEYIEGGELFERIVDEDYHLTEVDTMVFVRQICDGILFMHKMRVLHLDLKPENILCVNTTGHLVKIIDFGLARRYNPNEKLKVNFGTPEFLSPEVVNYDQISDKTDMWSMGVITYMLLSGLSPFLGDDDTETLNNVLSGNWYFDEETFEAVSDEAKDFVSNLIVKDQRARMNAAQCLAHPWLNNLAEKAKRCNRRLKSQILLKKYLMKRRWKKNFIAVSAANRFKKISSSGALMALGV

[5] = molecular target: T4, 382 unique human kinases (Homo sapiens, UniProt Q96PY6); conditions: NEK1, 10 uM; for remaining activity at 10 µM: read-out: % Enzyme Activity (relative to DMSO controls)
T4 construct: purchased Reaction Biology (HotSpot contract assay)
T4 sequence (Q96PY6 1-1258): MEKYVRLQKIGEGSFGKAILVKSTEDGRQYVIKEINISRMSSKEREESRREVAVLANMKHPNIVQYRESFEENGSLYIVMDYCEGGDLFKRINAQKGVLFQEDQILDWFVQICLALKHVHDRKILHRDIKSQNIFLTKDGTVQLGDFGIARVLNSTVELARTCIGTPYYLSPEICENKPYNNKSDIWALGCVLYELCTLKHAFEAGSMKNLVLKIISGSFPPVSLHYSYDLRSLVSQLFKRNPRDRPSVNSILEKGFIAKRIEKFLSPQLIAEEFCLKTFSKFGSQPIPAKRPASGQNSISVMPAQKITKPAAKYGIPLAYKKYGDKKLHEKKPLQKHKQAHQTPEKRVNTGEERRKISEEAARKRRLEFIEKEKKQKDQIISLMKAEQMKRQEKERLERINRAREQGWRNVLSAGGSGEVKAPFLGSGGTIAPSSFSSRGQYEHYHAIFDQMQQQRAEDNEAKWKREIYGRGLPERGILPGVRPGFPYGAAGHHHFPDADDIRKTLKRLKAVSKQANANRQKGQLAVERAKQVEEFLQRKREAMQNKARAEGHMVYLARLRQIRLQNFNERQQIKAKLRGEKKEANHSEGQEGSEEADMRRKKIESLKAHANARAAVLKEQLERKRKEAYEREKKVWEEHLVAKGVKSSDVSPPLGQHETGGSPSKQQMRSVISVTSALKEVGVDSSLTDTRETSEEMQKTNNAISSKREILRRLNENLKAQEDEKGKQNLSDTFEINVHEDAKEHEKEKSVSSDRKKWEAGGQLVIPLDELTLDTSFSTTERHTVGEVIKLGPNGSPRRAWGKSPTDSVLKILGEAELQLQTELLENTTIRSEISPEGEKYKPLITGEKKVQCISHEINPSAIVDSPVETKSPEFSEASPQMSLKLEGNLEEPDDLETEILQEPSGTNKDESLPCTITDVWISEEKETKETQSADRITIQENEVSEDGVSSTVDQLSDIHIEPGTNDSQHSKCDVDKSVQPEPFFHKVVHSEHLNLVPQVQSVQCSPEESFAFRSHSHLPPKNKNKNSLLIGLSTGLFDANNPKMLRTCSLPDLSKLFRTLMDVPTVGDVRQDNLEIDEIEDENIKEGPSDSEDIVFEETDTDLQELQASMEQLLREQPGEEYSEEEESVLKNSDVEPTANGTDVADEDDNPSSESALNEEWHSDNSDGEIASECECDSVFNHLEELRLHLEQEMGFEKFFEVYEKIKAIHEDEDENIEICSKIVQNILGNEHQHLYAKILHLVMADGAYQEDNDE

[6] = molecular target: T5, 382 unique human kinases (Homo sapiens, UniProt P15056); conditions: BRAF, 10 uM; for remaining activity at 10 µM: read-out: % Enzyme Activity (relative to DMSO controls)
T5 construct: purchased Reaction Biology (HotSpot contract assay)
T5 sequence (P15056 whole entry): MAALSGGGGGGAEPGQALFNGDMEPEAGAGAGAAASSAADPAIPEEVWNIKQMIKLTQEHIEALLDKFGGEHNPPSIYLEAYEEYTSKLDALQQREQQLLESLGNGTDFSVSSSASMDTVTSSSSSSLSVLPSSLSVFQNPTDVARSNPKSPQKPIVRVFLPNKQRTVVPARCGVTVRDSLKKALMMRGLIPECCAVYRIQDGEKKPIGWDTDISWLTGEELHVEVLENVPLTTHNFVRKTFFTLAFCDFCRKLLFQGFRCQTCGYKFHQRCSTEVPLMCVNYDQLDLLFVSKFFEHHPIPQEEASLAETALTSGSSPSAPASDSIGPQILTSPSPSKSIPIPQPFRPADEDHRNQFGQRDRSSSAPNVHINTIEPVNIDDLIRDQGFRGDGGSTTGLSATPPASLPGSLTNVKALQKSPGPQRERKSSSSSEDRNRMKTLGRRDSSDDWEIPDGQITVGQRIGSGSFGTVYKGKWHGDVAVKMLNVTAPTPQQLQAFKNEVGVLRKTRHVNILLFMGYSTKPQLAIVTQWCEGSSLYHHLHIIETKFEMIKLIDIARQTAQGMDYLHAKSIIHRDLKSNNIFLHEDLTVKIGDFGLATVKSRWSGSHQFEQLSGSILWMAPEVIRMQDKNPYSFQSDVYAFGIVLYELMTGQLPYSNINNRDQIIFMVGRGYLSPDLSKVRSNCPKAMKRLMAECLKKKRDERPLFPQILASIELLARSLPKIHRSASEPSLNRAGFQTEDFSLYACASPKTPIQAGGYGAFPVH

Question: For CC(C)c1cc(-c2n[nH]c(=O)n2-c2ccc3c(ccn3C)c2)c(O)cc1O [Ganetespib (STA9090)], which remaining activity at 10 µM [1] is on record?
Answer: Its remaining activity at 10 µM is 85.8%.

Question: And the remaining activity at 10 µM [2]?
Answer: The remaining activity at 10 µM was 90%.

Question: And the remaining activity at 10 µM [3]?
Answer: Its remaining activity at 10 µM is 72.8%.

Question: And the remaining activity at 10 µM [4]?
Answer: The remaining activity at 10 µM was 80.2%.

Question: With CC(C)c1cc(-c2n[nH]c(=O)n2-c2ccc3c(ccn3C)c2)c(O)cc1O [Ganetespib] as the molecule, how does the remaining activity at 10 µM [5] read?
Answer: Its remaining activity at 10 µM is 95.7%.

Question: What about the remaining activity at 10 µM [6] of the same molecule?
Answer: The remaining activity at 10 µM was 98.1%.

Question: How did the “% Enzyme Activity (relative to DMSO controls)” value [5] turn out when CCNC(=O)c1noc(-c2cc(C(C)C)c(O)cc2O)c1-c1ccc(CN2CCOCC2)cc1 [Luminespib] was run?
Answer: Its value is 102.76%.

Question: What about the remaining activity at 10 µM [5] of the same molecule?
Answer: The remaining activity at 10 µM was 110%.

Question: And the “% Enzyme Activity (relative to DMSO controls)” value [6]?
Answer: Its value is 103.97%.

Question: And the remaining activity at 10 µM [6]?
Answer: The remaining activity at 10 µM was 105%.

Question: Which “% Enzyme Activity (relative to DMSO controls)” value [1] does the source give for CCNC(=O)c1noc(-c2cc(C(C)C)c(O)cc2O)c1-c1ccc(CN2CCOCC2)cc1 [Luminespib (AUY-922)] here?
Answer: The value was 85.23%.

Question: What about the remaining activity at 10 µM [1] of the same molecule?
Answer: The remaining activity at 10 µM was 88.7%.

Question: What about the “% Enzyme Activity (relative to DMSO controls)” value [2] of the same molecule?
Answer: The value was 99.14%.

Question: What about the remaining activity at 10 µM [2] of the same molecule?
Answer: Its remaining activity at 10 µM is 99.7%.

Question: What about the “% Enzyme Activity (relative to DMSO controls)” value [3] of the same molecule?
Answer: Its value is 89.83%.

Question: And the remaining activity at 10 µM [3]?
Answer: Its remaining activity at 10 µM is 89.9%.

Question: What about the “% Enzyme Activity (relative to DMSO controls)” value [4] of the same molecule?
Answer: The value was 91.17%.

Question: What about the remaining activity at 10 µM [4] of the same molecule?
Answer: The remaining activity at 10 µM was 95.1%.
